As usually defined, the fold induction is the ratio of treated to control signal. Low readings indicate little rise in signal, high ones a large rise in signal. For orientation: IC50 means the midpoint of a concentration-inhibition curve. Read a low IC50 as greater potency in that assay.

Experiment [1] concerns p15 protein. Nature of the experiment: Evaluation of p15 induction activity (Western blotting). The format is cell-based. The following applies: test substance 0.1 μM, 24 hrs, ACHN cells or HT-29 cells, compared to DMSO, n=2. As to the method:
ACHN cells or HT-29 cells were cultured in a 6 well plate at 2.5×10^5 cells/1.8 mL/well for 24 hrs, then a test substance (0.1 μM) dissolved in DMSO was added. After 24 hrs, cells were detached using trypsin-EDTA (ethylene diamine tetraacetic acid) and solubilized with NuPAGE LDS sample buffer (Invitrogen). Using an RC DC protein assay kit (BIO-RAD), the protein concentration of the sample was quantitated, and a sample in an amount corresponding to 10 μg of BSA (bovine serum albumin) was analyzed by Western blotting using an anti-p15 antibody. The density of the band stained with the anti-p15 antibody was measured by a densitometer to quantify the amount of p15 protein. As a control, DMSO was used and the test was performed with n=2 and the average protein amount was determined.
(In general: In western blotting, separated proteins are transferred to a membrane and probed.)

In experiment [2] the test system is colorectal cancer cell line HT-29 cells. The experiment is described as follows: Growth inhibitory effect against cancer cell lines (3H-thymidine uptake), HT-29. The format is cell-based. The following applies: Homo sapiens, HT-29, inhibition of 3H-thymidine uptake; test substance 18 hrs, then 3H-thymidine 6 hrs; triplicate. As to the method:
Renal cancer cell line ACHN cell or colorectal cancer cell line HT-29 cells were cultured in a 96 well plate at 1.0×10^4 cells/90 μL/well for 24 hrs, then a test substance dissolved in DMSO (dimethyl sulfoxide) was added. After 18 hrs, ^3H-thymidine (0.25 μCi/well) was added and the cells were cultured for 6 hrs. Using a cell harvester, the cells were recovered on a UniFilter-96 GF/B glass filter and the ^3H radioactivity uptaken by the cells was measured by TopCount (Packard). As a control, DMSO was used and the activity of the test substance was expressed in the concentration (IC50) necessary for inhibiting ^3H radioactivity uptaken by the cell to 50% of that of the control group. The measurements were made in triplicate.

In experiment [1], `CC(C)n1c(=O)c2c(Nc3ccc(Cl)cc3)cc(=O)n(C)c2n(-c2ccccc2)c1=O` [Example 1-81] had a fold induction at 0.1 µM of no less than 1.5. Take `COc1ccc(-n2c(=O)n(C3CC3)c(=O)c3c(Nc4ccc(I)cc4F)n(C)c(=O)c(C)c32)cc1NC(C)=O` [Example 4-63]: the IC50 in experiment [2] lay within 10 to 100 nM. In experiment [2], `CCc1ccc(Nc2c3c(=O)n(C4CC4)c(=O)n(-c4ccc(NC(C)=O)cc4)c3c(C)c(=O)n2C)c(F)c1` [Example 4-75] registered an IC50 of 10 to 100 nM. Take `CCn1c(=O)c2c(Nc3ccc(Br)cc3)cc(=O)n(C)c2n(-c2cccnc2)c1=O` [Example 1-131]: the fold induction at 0.1 µM in experiment [1] is no less than 1.5. In experiment [2], `CC(C)c1ccc(Nc2cc(=O)n(C)c3c2c(=O)n(C2CC2)c(=O)n3-c2ccccc2)cc1` [Example 1-229] had an IC50 of 100 to 1000 nM. `Cn1c(=O)cc(Nc2ccc(F)cc2)c2c(=O)n(-c3ccccc3)c(=O)n(-c3ccccc3)c21` [Example 1-8]: the fold induction at 0.1 µM in experiment [1] is no less than 1.5. In experiment [2], `Cn1c(=O)cc(Nc2ccc(Br)cc2F)c2c(=O)n(C3CC3)c(=O)n(-c3cccc(OCCN4CCCCC4)c3)c21` [Example 1-234] came in with an IC50 of 100 to 1000 nM.

As to `CN(C)CCCOc1cccc(-n2c(=O)n(C3CC3)c(=O)c3c(Nc4ccc(Br)cc4F)cc(=O)n(C)c32)c1` [Example 1-227], the IC50 in experiment [2] lay within 10 to 100 nM.

`Cn1c(=O)cc(NCC(C)(C)C)c2c(=O)n(-c3ccccc3)c(=O)n(-c3ccccc3)c21` [Example 1-36] showed a fold induction at 0.1 µM in experiment [1] of no less than 1.5. Take `CCCCC(=O)NCCC(=O)Nc1cccc(-n2c(=O)n(C3CC3)c(=O)c3c(Nc4ccccc4F)n(C)c(=O)c(C)c32)c1` [Example 4-13]: in experiment [2], the IC50 was 100 to 1000 nM. With `CC(=O)N(c1cccc(-n2c(=O)n(C3CC3)c(=O)c3c(Nc4ccc(I)cc4F)n(C)c(=O)c(C)c32)c1)S(=O)(=O)N(C)C` [Example 4-138], in experiment [2], the IC50 is 100 to 1000 nM.

`Cn1c(=O)cc(Nc2ccc(Br)cc2F)c2c(=O)n(C3CC3)c(=O)n(-c3cccc(CCC(=O)O)c3)c21` [Example 1-201] showed an IC50 in experiment [2] of 100 to 1000 nM.

With `Cn1c(=O)cc(Nc2ccc(Br)cc2F)c2c(=O)n(C3CC3)c(=O)n(-c3cccc(N4CCCC4)c3)c21` [Example 1-215], the IC50 in experiment [2] is 100 to 1000 nM. `CN1CCN(CCCOc2cccc(-n3c(=O)n(C4CC4)c(=O)c4c(Nc5ccc(Br)cc5F)cc(=O)n(C)c43)c2)CC1` [Example 1-236]: the IC50 in experiment [2] was 100 to 1000 nM.

In experiment [2], `CCn1c(=O)c2c(Nc3ccc(Br)cc3F)cc(=O)n(C)c2n(-c2ccccc2)c1=O` [Example 1-164] registered an IC50 of 10 to 100 nM. Take `Cn1c(=O)cc(Nc2ccc(Br)cc2F)c2c(=O)n(C3CC3)c(=O)n(-c3cccc(NCCN)c3)c21` [Example 1-334]: in experiment [2], the IC50 was in the range of 100 to 1000 nM.

For the compound `Cc1c(=O)n(C)c(Nc2ccc(I)cc2F)c2c(=O)n(CCCO)c(=O)n(-c3ccc4oc(=O)[nH]c4c3)c12` [Example 4-146], in experiment [2], the IC50 lay in the range of 100 to 1000 nM. On the same count and under the same terms, the result for `CCN(CC)CCOc1cccc(-n2c(=O)n(C3CC3)c(=O)c3c(Nc4ccc(Br)cc4F)cc(=O)n(C)c32)c1` [Example 1-235] reads 100 to 1000 nM.

Turning to `CC(=O)Nc1cccc(-n2c(=O)n(C3CC3)c(=O)c3c(Nc4ccccc4F)n(C)c(=O)c(C)c32)c1` [Example 4-7], the IC50 in experiment [2] was in the range of 100 to 1000 nM. In experiment [2], `Cn1c(=O)cc(Nc2ccc(Cl)cc2F)c2c(=O)n(C3CC3)c(=O)n(-c3ccccc3)c21` [Example 1-171] had an IC50 of 10 to 100 nM. Regarding `CN1CCN(c2cccc(-n3c(=O)n(C4CC4)c(=O)c4c(Nc5ccc(Br)cc5F)cc(=O)n(C)c43)c2)CC1` [Example 1-206], the IC50 in experiment [2] was 100 to 1000 nM.

As to `CC(=O)N(C(C)=O)c1cccc(-n2c(=O)n(C3CC3)c(=O)c3c(Nc4ccc(I)cc4F)n(C)c(=O)c(C)c32)c1` [Example 4-140], the IC50 in experiment [2] lay in the range of 100 to 1000 nM.

Regarding `C=CCn1c(=O)c2c(Nc3ccc(N(C)C)cc3)cc(=O)n(C)c2n(-c2ccccc2)c1=O` [Example 1-140], the IC50 in experiment [2] was in the range of 100 to 1000 nM. `Cn1c(=O)cc(Nc2ccc(Br)cc2F)c2c(=O)n(C3CC3)c(=O)n(-c3cccc(N4CCCCC4)c3)c21` [Example 1-216] came in with an IC50 in experiment [2] of 100 to 1000 nM. `CN(C)CC(=O)Nc1cccc(-n2c(=O)n(C3CC3)c(=O)c3c(Nc4ccc(Br)cc4F)cc(=O)n(C)c32)c1` [Example 1-277] showed an IC50 in experiment [2] of 10 to 100 nM.

Take `COc1cccc(-n2c(=O)n(C3CC3)c(=O)c3c(Nc4ccc(Br)cc4)cc(=O)n(C)c32)c1` [Example 1-190]: in experiment [2], the IC50 fell in the range of 100 to 1000 nM. Consider `CC(=O)N(c1cccc(-n2c(=O)n(C3CC3)c(=O)c3c(Nc4ccc(I)cc4F)n(C)c(=O)c(C)c32)c1)S(C)(=O)=O` [Example 4-133], for which, in experiment [2], the IC50 was in the range of 100 to 1000 nM. As for `CC(=O)Nc1ccc(-n2c(=O)n(C3CC3)c(=O)c3c(Nc4ccc(Br)cc4F)n(C)c(=O)c(C)c32)cc1` [Example 4-4], in experiment [2], the IC50 lay within 100 to 1000 nM. With `CC(=O)Nc1cccc(-n2c(=O)n(C3CC3)c(=O)c3c(Nc4ccc(C5CCCC5)cc4F)n(C)c(=O)c(C)c32)c1` [Example 4-57], the IC50 in experiment [2] was in the range of 100 to 1000 nM.

As to `Cc1c(=O)n(C)c(Nc2ccc(I)cc2F)c2c(=O)n(CCCO)c(=O)n(-c3cccc(NC(=O)CO)c3)c12` [Example 4-148], the IC50 in experiment [2] was 100 to 1000 nM.

`Cc1c(=O)n(C)c(Nc2ccc(I)cc2F)c2c(=O)n(CCCO)c(=O)n(-c3cccc(NS(C)(=O)=O)c3)c12` [Example 4-145] yielded an IC50 in experiment [2] of 100 to 1000 nM. Same read-out and setting: the result for `Cn1c(=O)cc(Nc2ccc(Br)cc2F)c2c(=O)n(C3CC3)c(=O)n(-c3cccc(NC(=O)CCO)c3)c21` [Example 1-305] reads 10 to 100 nM. On the same count and under the same terms, in the case of `CN(C)C(=O)Nc1cccc(-n2c(=O)n(C3CC3)c(=O)c3c(Nc4ccc(Br)cc4F)cc(=O)n(C)c32)c1` [Example 1-324] it was 10 to 100 nM; in that of `Cn1c(=O)cc(Nc2ccc(Br)cc2F)c2c(=O)n(C3CC3)c(=O)n(-c3cccc(OCCN4CCCC4)c3)c21` [Example 1-233], 100 to 1000 nM; in that of `COc1ccc(Nc2cc(=O)n(C)c3c2c(=O)n(C2CC2)c(=O)n3-c2ccccc2)cc1` [Example 1-129], 100 to 1000 nM. On to `Cn1c(=O)cc(Nc2ccc(Br)cc2F)c2c(=O)n(C3CC3)c(=O)n(-c3cccc(NS(=O)(=O)CCN)c3)c21` [Example 1-313], for which the concentration for half-maximal inhibition (IC50) in experiment [2] fell in the range of 10 to 100 nM. The compound `Cn1c(=O)cc(Nc2ccc(Br)cc2F)c2c(=O)n(C3CC3)c(=O)n(-c3cccc(N4CCCCC4=O)c3)c21` [Example 1-214] yielded an IC50 in experiment [2] of 10 to 100 nM.

Regarding `CN(C)CCCc1cccc(-n2c(=O)n(C3CC3)c(=O)c3c(Nc4ccc(Br)cc4F)cc(=O)n(C)c32)c1` [Example 1-252], in experiment [2], the IC50 was 10 to 100 nM.

In the case of `Cc1c(=O)n(C)c(Nc2ccc(I)cc2F)c2c(=O)n(CCCO)c(=O)n(-c3ccccc3)c12` [Example 4-147], in experiment [2], the IC50 fell in the range of 100 to 1000 nM. For `CC(=O)Nc1cccc(-n2c(=O)n(CCCO)c(=O)c3c(Nc4ccc(I)cc4F)n(C)c(=O)c(C)c32)c1` [Example 4-135], in experiment [2], the IC50 was in the range of 100 to 1000 nM. In experiment [2], `COc1cc(Br)ccc1Nc1cc(=O)n(C)c2c1c(=O)n(C1CC1)c(=O)n2-c1ccccc1` [Example 1-189] yielded an IC50 of 100 to 1000 nM.

In experiment [2], `Cn1c(=O)cc(Nc2ccc(Br)cc2F)c2c(=O)n(C3CC3)c(=O)n(-c3ccc(S(C)(=O)=O)cc3)c21` [Example 1-225] showed an IC50 of 100 to 1000 nM. Still for that read-out and setting: the result for `COc1ccc(Nc2cc(=O)n(C)c3c2c(=O)n(C2CC2)c(=O)n3-c2ccccc2)c(Br)c1` [Example 1-211] reads 100 to 1000 nM; that for `CCN(C)c1ccc(Nc2cc(=O)n(C)c3c2c(=O)n(C2CC2)c(=O)n3-c2ccccc2)c(F)c1` [Example 1-217], 100 to 1000 nM; that for `Cc1c(=O)n(C)c(Nc2ccc(Br)cc2)c2c(=O)n(CCO)c(=O)n(-c3ccccc3)c12` [Example 4-85], 100 to 1000 nM. The compound `COc1ccccc1-n1c(=O)n(C2CC2)c(=O)c2c(Nc3ccc(Br)cc3)cc(=O)n(C)c21` [Example 1-159] showed an IC50 in experiment [2] of 100 to 1000 nM. Same read-out and setting: in the case of `CNC(=O)c1cccc(-n2c(=O)n(C3CC3)c(=O)c3c(Nc4ccc(Br)cc4F)cc(=O)n(C)c32)c1` [Example 1-292] it was 10 to 100 nM.

`Cn1c(=O)cc(Nc2ccc(Br)cc2F)c2c(=O)n(C3CC3)c(=O)n(-c3cccc(CCCN4CCCCC4)c3)c21` [Example 1-255] showed an IC50 in experiment [2] of 100 to 1000 nM. The same measure, in the same setting: the result for `CCCc1ccc(Nc2cc(=O)n(C)c3c2c(=O)n(C2CC2)c(=O)n3-c2ccccc2)c(F)c1` [Example 1-258] reads 100 to 1000 nM; that for `Cn1c(=O)cc(Nc2ccc(CC(F)F)cc2)c2c(=O)n(C3CC3)c(=O)n(-c3ccccc3)c21` [Example 1-326], 100 to 1000 nM. Compound `CCc1ccc(Nc2cc(=O)n(C)c3c2c(=O)n(C2CC2)c(=O)n3-c2ccccc2)cc1` [Example 1-230] displayed an IC50 in experiment [2] of 100 to 1000 nM. In experiment [2], `Cn1c(=O)cc(Nc2ccc(Br)cc2F)c2c(=O)n(C3CC3)c(=O)n(-c3cccc(S(N)(=O)=O)c3)c21` [Example 1-288] showed an IC50 of 10 to 100 nM. The same measure, in the same setting: in the case of `Cn1c(=O)cc(Nc2ccc(C(F)(F)F)cc2)c2c(=O)n(C3CC3)c(=O)n(-c3ccccc3)c21` [Example 1-273] it was 100 to 1000 nM. Compound `CCn1c(=O)c2c(Nc3ccc(Br)cc3F)cc(=O)n(C)c2n(-c2cccnc2)c1=O` [Example 1-244] registered an IC50 in experiment [2] of 100 to 1000 nM.

Values taken from patent US20180273531A1, “PYRIMIDINE COMPOUND AND MEDICAL USE THEREOF” (Japan Tobacco Inc., priority 2004, published 2018).
